Source: patent US4778818A, “Substituted 2-(heteroaryl-2-propenyl)phenols useful as anti-inflammatory agents” (Merck & Co., Inc., priority 1987, dated 1988)

Legend:
[1] = tested on: inflammatory responses elicited by topically applied phorbol myristate acetate (PMA) or topically applied archidonic acid (AA) in mouse ear; test: Topical mouse ear assay (TME); type: in vivo, mice
Method: The topical mouse ear assay (TME) was used to evaluate the novel compounds of the present invention for its effect on inflammatory responses elicited by topically applied phorbol myristate acetate (PMA) or topically applied archidonic acid (AA).
TABLE I Topical Mouse Ear Assay
Method: The right ears of mice (5 mice per group) were treated topically with either […] or 1000 μg AA alone or with the test compound in 25 μl of vehicle. The vehicle was water/pyridine/acetone (1:2:97). A control group of mice received the vehicle only. The mice were allowed food and water ad libitum during the treatment period; 2 hours for AA and 4 hours for PMA. The mice were sacrificed by cervical dislocation and a 6 mm diameter disc of tissue punched from both the treated and untreated ears. The tissue biopsies were immediately weighed and the weight increase of the treated ear relative to the weight of the untreated ear determined.
At the termination of the experiment, the amount of radioactivity in both the treated and untreated ear biopsies was determined and the increased amount of radioactivity in the treated tissue relative to the amount of radioactive in the untreated tissue determined.
As a measure of PMN infiltration, the amount of myeloperoxidase (MPO) activity in the same tissues was determined. The tissue biopsies were homogenized into 1 ml 0.5% hexadecyltrimethylammonium bromide and centrifuged for 45 min. at 1200×g. Aliquots 40 μl, of the supernatant phases were assayed for MPO activity by a colorimetric method devised by H. Dougherty for automated Titertek analysis. The MPO activity is expressed as the OD450 of the treated ear homogenate minus the OD450 of the non-treated ear homogenate.
All of the data are expressed as the mean±SEM, N=5 mice/group.

[2] = tested on: inflammatory responses elicited by topically applied phorbol myristate acetate (PMA) or topically applied archidonic acid (AA) in mouse ear; details: previously established, in words; cited from earlier work

Structure (SMILES)	Edema (% inhibition) ([1]; dosage 50 μg)	Edema (% inhibition) ([1]; dosage 150 μg)	Edema (% inhibition) ([1]; dosage 300 μg)	Edema (% inhibition) ([1]; dosage 5 μg)	activity in the topical mouse ear assay [2]
OCc1ccccc1/C=C/Cc1cc2c(cc1O)CCO2 [A, 5-hydroxy-6-(2-hydroxymethylcinnamyl)-2,3-dihydrobenzofuran]	37%	54%	88%	–	–
C[C@@H]1C[C@H]2[C@@H]3CCC4=CC(=O)C=C[C@]4(C)[C@@]3(F)[C@@H](O)C[C@]2(C)[C@@]1(O)C(=O)CO [Dexamethasone]	–	–	–	60%	active
COc1ccc2c(c1)c(CC(=O)O)c(C)n2C(=O)c1ccc(Cl)cc1 [Indomethacin]	–	51%	–	–	active
